Assay results: patent publication US7902373B2 (Pfizer Inc, priority 2006, dated 2011)

Target: human recombinant H-PGDS (Homo sapiens, UniProt O60760)
Experiment: Fluorescence intensity h-PGDS TBA enzyme assay
Type: biochemical
Details: Examples up to 622 (and 3a, 3b)

Chain of human recombinant H-PGDS (O60760 whole entry): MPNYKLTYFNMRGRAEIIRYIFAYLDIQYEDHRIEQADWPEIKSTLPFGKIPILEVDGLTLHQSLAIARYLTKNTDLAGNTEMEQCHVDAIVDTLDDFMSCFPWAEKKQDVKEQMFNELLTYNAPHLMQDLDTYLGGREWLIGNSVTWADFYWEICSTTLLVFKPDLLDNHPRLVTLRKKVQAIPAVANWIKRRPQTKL

| Compound | IC50 [nM] |
| --- | --- |
| CC(C)c1ncc2c(n1)CCC(CN1CCC(NC(=O)c3ccc(-c4cccc(F)c4)nc3)CC1)C2 (stereo not drawn) [Example 400, 6-(3-Fluorophenyl)-N-{1-[(2-isopropyl-5,6,7,8-tetrahydroquinazolin-6-yl)methyl]piperidin-4-yl}nicotinamide] | 1.04 |
| O=C(NC1CCN(Cc2ccn[nH]2)CC1)c1ccc(-c2cccc(F)c2)nc1 [Example 384, 6-(3-Fluorophenyl)-N-[1-(1H-pyrazol-5-ylmethyl)piperidin-4-yl]nicotinamide] | 0.959 |
| COc1cc2ncc(N3CCC(NC(=O)c4ccc(-c5cccc(F)c5)nc4)CC3)nc2cc1OC [Example 173, N-[1-(6,7-Dimethoxyquinoxalin-2-yl)piperidin-4-yl]-6-(3-fluorophenyl)nicotinamide] | 16 |
| CC(=O)NC1CCC(N2CCC(NC(=O)c3ccc(-c4cccc(F)c4)nc3)CC2)CC1 (stereo not drawn) [Example 546, N-{1-[4-(Acetylamino)cyclohexyl]piperidin-4-yl}-6-(3-fluorophenyl)nicotinamide] | 2.83 |
| CCOC(=O)Cn1ccc2cc(CN3CCC(NC(=O)c4ccc(-c5cccc(F)c5)nc4)CC3)ccc21 [Example 284, Ethyl (5-{[4-({[6-(3-fluorophenyl)pyridin-3-yl]carbonyl}amino)piperidin-1-yl]methyl}-1H-indol-1-yl)acetate] | 1.43 |
| O=C(NC1CCN(c2ncc3c(n2)CCOC3)CC1)c1ccc(-c2cccc(F)c2)nc1 [Example 579, N-[1-(7,8-Dihydro-5H-pyrano[4,3-d]pyrimidin-2-yl)piperidin-4-yl]-6-(3-fluorophenyl)nicotinamide] | 1.05 |
| O=C(NC1CCN(C2CCC(O)(c3cncnc3)CC2)CC1)c1ccc(-c2cccc(F)c2)nc1 (stereo not drawn) [Example 554, 6-(3-Fluorophenyl)-N-[1-(4-hydroxy-4-pyrimidin-5-ylcyclohexyl)piperidin-4-yl]nicotinamide] | 1.72 |
| COC1CCCC(N2CCC(NC(=O)c3ccc(-c4cccc(F)c4)nc3)CC2)C1 (stereo not drawn) [Example 549, 6-(3-Fluorophenyl)-N-[1-(3-methoxycyclohexyl)piperidin-4-yl]nicotinamide] | 2.26 |
| O=C(NC1CCN(Cc2ccc(Cl)cc2)CC1)c1ccc(-c2cccc(F)c2)nc1 [Example 225, N-[1-(4-Chlorobenzyl)piperidin-4-yl]-6-(3-fluorophenyl)nicotinamide] | 2.48 |
| CCOC(=O)N1CCC(NC(=O)c2ccc(-c3cccc(F)c3)nc2)C1 (stereo not drawn) [Example 594, Ethyl 3-({[6-(3-fluorophenyl)pyridin-3-yl]carbonyl}amino)pyrrolidine-1-carboxylate] | 2.7 |
| O=C(NC1CCN(c2ccc(C(=O)N3CCSC3)cn2)CC1)c1ccc(-c2cccc(F)c2)nc1 [Example 573, 6-(3-Fluorophenyl)-N-{1-[5-(1,3-thiazolidin-3-ylcarbonyl)pyridin-2-yl]piperidin-4-yl}nicotinamide] | 1.35 |
| COc1ccc2c(N3CCC(NC(=O)c4ccc(-c5cccc(F)c5)nc4)CC3)ncnc2c1OC [Example 122, N-[1-(7,8-Dimethoxyquinazolin-4-yl)piperidin-4-yl]-6-(3-fluorophenyl)nicotinamide] | 0.168 |
| O=C(NC1CCN(Cc2cccn3cc(Br)nc23)CC1)c1ccc(-c2cccc(F)c2)nc1 [Example 343, N-{1-[(2-Bromoimidazo[1,2-a]pyridin-8-yl)methyl]piperidin-4-yl}-6-(3-fluorophenyl)nicotinamide] | 1.9 |
| Cc1nccc(CN2CCC(NC(=O)c3ccc(-c4cccc(F)c4)nc3)CC2)n1 [Example 389, 6-(3-Fluorophenyl)-N-{1-[(2-methylpyrmidin-4-yl)methyl]piperidin-4-yl}nicotinamide] | 2.23 |
| CCc1cn2nc(N3CCC(NC(=O)c4ccc(-c5cccc(F)c5)nc4)CC3)ccc2n1 [Example 154, N-[1-(2-Ethylimidazo[1,2-b]pyridazin-6-yl)piperidin-4-yl]-6-(3-fluorophenyl)nicotinamide] | 0.96 |
| CC(CCn1cccn1)N1CCC(NC(=O)c2ccc(-c3cccc(F)c3)nc2)CC1 (stereo not drawn) [Example 548, 6-(3-Fluorophenyl)-N-{1-[1-methyl-3-(1H-pyrazol-1-yl)propyl]piperidin-4-yl}nicotinamide] | 2.07 |
| CC(C)Oc1ncccc1CN1CCC(NC(=O)c2ccc(-c3cccc(F)c3)nc2)CC1 [Example 461, 6-(3-Fluorophenyl)-N-{1-[(2-isopropoxypyridin-3-yl)methyl]piperidin-4-yl}nicotinamide] | 0.239 |
| COc1ccc(CN2CCC(NC(=O)c3ccc(-c4cccc(F)c4)nc3)CC2)cc1Br [Example 245, N-[1-(3-Bromo-4-methoxybenzyl)piperidin-4-yl]-6-(3-fluorophenyl)nicotinamide] | 1.2 |
| O=C(NC1CCN(Cc2c[nH]nc2-c2ccccc2)CC1)c1ccc(-c2cccc(F)c2)nc1 [Example 182, 6-(3-Fluorophenyl)-N-{1-[(3-phenyl-1H-pyrazol-4-yl)methyl]piperidin-4-yl}nicotinamide] | 0.424 |
| CC(C)(C)C(=O)N1CC(NC(=O)c2ccc(-c3cccc(F)c3)nc2)C1 [Example 601, N-[1-(2,2-Dimethylpropanoyl)azetidin-3-yl]-6-(3-fluorophenyl)nicotinamide] | 6.76 |

| Compound | IC50 [nM] |
| --- | --- |
| NC(=O)c1cc2c(nc1N1CCC(NC(=O)c3ccc(-c4cccc(F)c4)nc3)CC1)CCC2 [Example 170, 2-[4-({[6-(3-Fluorophenyl)pyridin-3-yl]carbonyl}amino)piperidin-1-yl]-6,7-dihydro-5H-cyclopenta[b]pyridine-3-carboxamide] | 1.77 |
| COc1ccccc1-c1c(CN2CCC(NC(=O)c3ccc(-c4cccc(F)c4)nc3)CC2)cnn1C [Example 508, 6-(3-Fluorophenyl)-N-(1-{[5-(2-methoxyphenyl)-1-methyl-1H-pyrazol-4-yl]methyl}piperidin-4-yl)nicotinamide] | 0.551 |
| O=C(NC1CCN(Cc2nc(-c3ccc(F)cc3)cs2)CC1)c1ccc(-c2cccc(F)c2)nc1 [Example 407, 6-(3-Fluorophenyl)-N-(1-{[4-(4-fluorophenyl)-1,3-thiazol-2-yl]methyl}piperidin-4-yl)nicotinamide] | 5.4 |
| CCc1cn2nc(N3C[C@H](NC(=O)c4ccc(-c5cccc(F)c5)nc4)[C@@H](O)C3)ccc2n1 (relative stereo) [Example 614, Trans-N-[1-(2-ethylimidazo[12-b]pyridazin-6-yl)-4-hydroxypyrrolidin-3-yl]-6-(3-fluorophenyl)nicotinamide] | 52.5 |
| O=C(NC1CCN(c2ncnc3c2ncn3C2CC2)CC1)c1ccc(-c2cccc(F)c2)nc1 [Example 115, N-[1-(9-Cyclopropyl-9H-purin-6-yl)piperidin-4-yl]-6-(3-fluorophenyl)nicotinamide] | 0.241 |
| Cn1c(-c2cccc(O)c2)nc2c(N3CCC(NC(=O)c4ccc(-c5cccc(F)c5)nc4)CC3)ncnc21 [Example 109, 6-(3-Fluorophenyl)-N-{1-[8-(3-hydroxyphenyl)-9-methyl-9H-purin-6-yl]piperidin-4-yl}nicotinamide] | 2.74 |
| O=C(NC1CCN(Cc2c[nH]cn2)CC1)c1ccc(-c2cccc(F)c2)nc1 [Example 190, 6-(3-Fluorophenyl)-N-[1-(1H-imidazol-5-ylmethyl)piperidin-4-yl]nicotinamide] | 1.83 |
| CN1CCC(NC(=O)c2ccc(-c3cccc(F)c3)nc2)CC1 [Example 27, 6-(3-Fluorophenyl)-N-(1-methylpiperidin-4-yl)nicotinamide] | 19.1 |
| Cc1noc(NC(=O)c2ccc(N3CCC(NC(=O)c4ccc(-c5cccc(F)c5)nc4)CC3)nn2)c1C [Example 86, N-(3,4-Dimethylisoxazol-5-yl)-6-[4-({[6-(3-fluorophenyl)pyridin-3-yl]carbonyl}amino)piperidin-1-yl]pyridazine-3-carboxamide] | 0.876 |
| CCc1noc(COc2cccc(CN3CCC(NC(=O)c4ccc(-c5cccc(F)c5)nc4)CC3)c2)n1 [Example 388, N-(1-{3-[(3-Ethyl-1,2,4-oxadiazol-5-yl)methoxy]benzyl}piperidin-4-yl)-6-(3-fluorophenyl)nicotinamide] | 0.951 |
| COc1ccc2ncnc(N3CCC(NC(=O)c4ccc(-c5cccc(F)c5)nc4)CC3)c2c1 [Example 178, 6-(3-Fluorophenyl)-N-[1-(6-methoxyquinazolin-4-yl)piperidin-4-yl]nicotinamide] | 0.735 |
| CNC(=O)N1CCC(NC(=O)c2ccc(-c3cccc(F)c3)nc2)CC1 [Example 592, 6-(3-Fluorophenyl)-N-{1-[(methylamino)carbonyl]piperidin-4-yl}nicotinamide] | 2.44 |
| COc1ccc2c(N3CCC(NC(=O)c4ccc(-c5cccc(F)c5)nc4)CC3)ncnc2c1 [Example 52, 6-(3-Fluorophenyl)-N-[1-(7-methoxyquinazolin-4-yl)piperidin-4-yl]nicotinamide] | 0.332 |
| Cn1c(-c2cccc(C#N)c2)nc2c(N3CCC(NC(=O)c4ccc(-c5cccc(F)c5)nc4)CC3)ncnc21 [Example 161, N-{1-[8-(3-Cyanophenyl)-9-methyl-9H-purin-6-yl]piperidin-4-yl}-6-(3-fluorophenyl)nicotinamide] | 3.85 |
| O=C(NC1CCN(Cc2cc3ccccc3nn2)CC1)c1ccc(-c2cccc(F)c2)nc1 [Example 261, N-[1-(Cinnolin-3-ylmethyl)piperidin-4-yl]-6-(3-fluorophenyl)nicotinamide] | 1.48 |
| O=C(NC1CCN(c2ccc(C(=O)Nc3ccon3)nn2)CC1)c1ccc(-c2cccc(F)c2)nc1 [Example 85, 6-[4-({[6-(3-Fluorophenyl)pyridin-3-yl]carbonyl}amino)piperidin-1-yl]-N-isoxazol-3-ylpyridazine-3-carboxamide] | 0.72 |
| Cc1cc(CN2CCC(NC(=O)c3ccc(-c4cccc(F)c4)nc3)CC2)no1 [Example 351, 6-(3-Fluorophenyl)-N-{1-[(5-methylisoxazol-3-yl)methyl]piperidin-4-yl}nicotinamide] | 0.531 |
| O=C(NC1CCN(Cc2nc3ccccc3[nH]2)CC1)c1ccc(-c2cccc(F)c2)nc1 [Example 337, N-[1-(1H-Benzimidazol-2-ylmethyl)piperidin-4-yl]-6-(3-fluorophenyl)nicotinamide] | 1.42 |
| CN1CCC(NC(=O)c2ccc(-c3ccc(F)cc3)nc2)CC1 [Example 12, 6-(4-Fluorophenyl)-N-(1-methylpiperidin-4-yl)nicotinamide] | 694 |
